From PMC5905603, “Purification and characterisation of a quorum quenching AHL-lactonase from the endophytic bacterium Enterobacter sp. CS66” (FEMS Microbiology Letters, 2018)

Tested on: T1, AiiE
T1 construct: full-length ORF (ca. 750 bp) in pET-19m, E. coli Rosetta DE3; His6 tag cut off by TEV; 240B1
Assay: phenol red proton-release assay (A557), Lineweaver-Burk
Type: biochemical, Enterobacter sp. CS66
Conditions: 1 mM HEPES, 200 mM NaCl, 50 uM phenol red, pH 7.5
From the text: phenol red proton-release assay (A557), Lineweaver-Burk on AiiE

| Compound | Km [mM] |
| --- | --- |
| CCCC(=O)N[C@H]1CCOC1=O [C4-HSL] | 6.01 |
| CCCCCCCCCCCC(=O)N[C@H]1CCOC1=O [C12-HSL] | 15.2 |
| CCCCCCCC(=O)N[C@H]1CCOC1=O [C8-HSL] | 10.3 |
| CCCCCC(=O)N[C@H]1CCOC1=O [C6-HSL] | 7.88 |
| CCCCCCCCCC(=O)N[C@H]1CCOC1=O [C10-HSL] | 14.9 |
